# Experimental data: patent US20060111357A1, “Quinoline compounds for use in mch receptor related disorders” (priority 2003, published 2006)
# Where two headings read alike, the source gives them in different places.
# How the values were obtained:
# human MCH-1 receptor [1] = molecular target: T1, human MCH-1 receptor (Homo sapiens, UniProt Q99705); experiment: MCH receptor binding ([125I]-MCH competition binding / SPA)
# T1 construct: expressed in transfected cells; host or cells: transiently transfected COS-7 cells or stably transfected CHO cells (pcDNA3.1)
# T1 sequence (Q99705 whole entry): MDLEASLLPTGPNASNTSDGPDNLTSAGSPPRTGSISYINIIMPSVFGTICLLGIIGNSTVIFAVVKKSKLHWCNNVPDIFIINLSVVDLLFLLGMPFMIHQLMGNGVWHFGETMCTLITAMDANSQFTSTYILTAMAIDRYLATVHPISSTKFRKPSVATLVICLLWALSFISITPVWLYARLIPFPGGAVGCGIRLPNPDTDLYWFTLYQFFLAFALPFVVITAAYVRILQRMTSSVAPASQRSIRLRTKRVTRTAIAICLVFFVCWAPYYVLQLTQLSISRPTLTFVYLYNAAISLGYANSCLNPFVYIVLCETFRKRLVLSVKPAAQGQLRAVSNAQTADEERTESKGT
# Experimental: (§1) Transfections and Tissue Culture—The cDNA encoding the human MCH-1 receptor was cloned from a human brain cDNA library and cloned into the eukaryotic expression vector pcDNA3.1 (Invitrogen). Assays were performed on transiently transfected COS-7 cells or stably transfected CHO (Chinese Hamster Ovary) cells, expressing the human MCH-1 receptor in pcDNA3.1. […] Clones were screened by a MCH receptor radioligand binding assay (as described below).
# Radioligand Binding Assay—Transiently transfected COS-7 cells or stably transfected CHO cells, expressing human MCH-1 receptor were seeded in multi-well culture plates one day before the assay. The number of cells per well was determined by the apparent expression efficiency of the cell line aiming at 5-10% binding of the added radioligand. […] The assay was performed in duplicate. Nonspecific binding was determined as the binding in the presence of 1 μM MCH (Bachem). Binding data were analyzed and IC50 values determined by non-linear regression using the Prism software (GraphPad software, San Diego). Values of the dissociation and inhibition constants (Kd and Ki) were estimated from competition binding using the equations Kd=IC50-L and Ki=IC50/(1+L/Kd), respectively, where L is the concentration of radioligand.
# Membranes and beads were pre-incubated for 20 min. […] Moreover, CHO-K1 membranes expressing the hMCH receptor were purchased from Euroscreen (ES-370-M) and a final concentration of 2 μg/well were used. Binding data were analyzed and IC50 values determined by non-linear regression using the Prism software (GraphPad software, San Diego). Values of the inhibition constant (Ki) were estimated from competition binding using the equation Ki=IC50/(1+L/Kd), where L and Kd are the concentration and affinity constant, respectively, of the radioligand.
# human MCH-1 receptor [2] = molecular target: T1, human MCH-1 receptor; experiment: Phosphatidylinositol (IP3) assay, MCH-stimulated turnover; assay type: cell-based
# Experimental: as §1
# Phosphatidylinositol assay—To assay phosphatidylinositol turnover, transiently transfected COS-7 cells or stably transfected CHO cells, expressing human MCH-1 receptor (2×10^5 cells/well) were incubated for 24 h with 5 μCi of (^3H]-myo-inositol (Amersham Pharmacia Biotech) in 0.5 ml inositol-free culture medium. Cells were washed twice in PI-buffer: 20 mM HEPES, pH 7.4, supplemented with 140 mM NaCl, 5 mM KCl, 1 mM MgSO4, 1 mM CaCl2, 10 mM glucose, 0.02% (w/v) bovine serum; and were incubated in 0.5 ml PI-buffer supplemented with 10 mM LiCl at 37° C. for 45 min.
# Phosphatidylinositol turnover was stimulated by submaximal concentrations of MCH, i.e. 10 nM in the presence of increasing amounts of ligand. The ligand was added 5 min. before adding the agonist (MCH). Cells were extracted with 10 mM ice-cold Formic acid, and the generated [^3H]-inositol phosphates were purified on Bio-Rad AG 1-X8 anion-exchange resin. Determinations were made in duplicate. PI data were analyzed and IC50 values determined by non-linear regression using the Prism software (GraphPad software, San Diego).
# [3] = risk of Torsades de Pointes, from www.torsades.org; cited from earlier work
# HERG channels [4] = molecular target: T2, HERG channels (Homo sapiens, UniProt Q12809)
# T2 sequence (Q12809 whole entry): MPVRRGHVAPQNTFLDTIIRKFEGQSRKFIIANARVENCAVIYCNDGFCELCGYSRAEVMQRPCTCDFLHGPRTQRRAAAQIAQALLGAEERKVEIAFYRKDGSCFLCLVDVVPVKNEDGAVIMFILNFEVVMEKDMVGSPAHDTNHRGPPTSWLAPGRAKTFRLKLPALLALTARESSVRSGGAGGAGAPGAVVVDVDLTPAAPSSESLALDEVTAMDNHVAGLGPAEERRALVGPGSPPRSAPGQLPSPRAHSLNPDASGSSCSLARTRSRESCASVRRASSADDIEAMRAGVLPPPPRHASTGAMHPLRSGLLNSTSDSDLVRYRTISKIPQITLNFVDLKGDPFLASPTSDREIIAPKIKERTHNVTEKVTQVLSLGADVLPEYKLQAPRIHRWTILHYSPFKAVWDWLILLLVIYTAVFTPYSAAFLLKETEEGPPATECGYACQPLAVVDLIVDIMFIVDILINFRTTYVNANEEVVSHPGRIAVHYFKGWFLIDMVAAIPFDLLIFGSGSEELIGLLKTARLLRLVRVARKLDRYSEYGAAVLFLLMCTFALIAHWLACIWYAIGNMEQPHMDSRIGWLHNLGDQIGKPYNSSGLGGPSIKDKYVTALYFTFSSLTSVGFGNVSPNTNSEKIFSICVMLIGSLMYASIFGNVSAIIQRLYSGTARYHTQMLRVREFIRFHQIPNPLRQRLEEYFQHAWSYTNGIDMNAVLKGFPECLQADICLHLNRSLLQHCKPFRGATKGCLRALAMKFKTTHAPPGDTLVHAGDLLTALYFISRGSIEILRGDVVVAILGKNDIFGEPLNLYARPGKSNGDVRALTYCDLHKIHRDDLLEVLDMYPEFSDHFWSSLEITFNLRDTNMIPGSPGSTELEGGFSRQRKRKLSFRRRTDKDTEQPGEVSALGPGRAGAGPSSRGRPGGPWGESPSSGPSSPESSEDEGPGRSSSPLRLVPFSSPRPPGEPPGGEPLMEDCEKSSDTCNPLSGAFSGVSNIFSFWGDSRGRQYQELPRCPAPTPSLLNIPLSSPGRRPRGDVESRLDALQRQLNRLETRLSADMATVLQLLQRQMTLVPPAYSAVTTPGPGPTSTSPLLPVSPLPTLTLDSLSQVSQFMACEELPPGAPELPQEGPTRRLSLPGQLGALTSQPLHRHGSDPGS
# HERG channels [5] = molecular target: T2, HERG channels; experiment: HERG selectivity method, whole-cell patch-clamp recordings
# [6] = stimulated by 10 nM MCH, read-out: IP3 IC50
# Throughout, for Risk Group: key: 1: Drugs that are generally accepted by authorities to have a risk of Torsades de Pointes (TdP); 2: Drugs that in some reports may be associated with TdP but at this time lack substantial evidence; 4: Drugs that, in some reports, have been weakly associated with TdP but that when used in usual dosages are unlikely to be a risk for TdP.
IC50 (human MCH-1 receptor [1]),IC50 (human MCH-1 receptor [2]; [6]),SMILES,Risk Group [3],other results
280 nM,2000 nM,Cc1cc(N2CCN(C)CC2)nc2ccc(NC(=O)C(C)Oc3ccc(Cl)cc3Cl)cc12 (stereo not drawn),–,–
–,–,CC(C)NCC(O)c1ccc(NS(C)(=O)=O)cc1 (racemic) [(±) sotalol],1,Ki in μM ± S.D. (#) (HERG channels [4]): No effect at 100 (5)
–,–,CCCCc1oc2ccccc2c1C(=O)c1cc(I)c(OCCN(CC)CC)c(I)c1 [Amiodarone],1,–
–,–,CN(C)CCC=C1c2ccccc2CCc2ccccc21 [Amitriptyline],4,–
–,–,Clc1ccc2c(c1)C(N1CCNCC1)=Nc1ccccc1O2 [Amoxapine],4,–
–,–,CC(C)COCC(CN(Cc1ccccc1)c1ccccc1)N1CCCC1 (stereo not drawn) [Bepridil],1,–
–,–,CN1CCN(C(c2ccccc2)c2ccc(Cl)cc2)CC1 (stereo not drawn) [Chlorcyclizine],–,Ki (HERG channels [5]): 4 ± 1.4 µM
–,–,CN(C)CCCN1c2ccccc2Sc2ccc(Cl)cc21 [Chlorpromazine],1,–
–,–,CN1CCN(CC/C=C2/c3ccccc3Sc3ccc(S(=O)(=O)N(C)C)cc32)CC1 [Cis-Thiothixene],–,"Ki (HERG channels [5]; read-out: Ki in μM ± S.D. (#), HEK 293 cells stably expressing HERG+KCNE1, tail-current block, room temperature, Ki=koff/kon): 8.6 ± 2.7 µM"
–,–,CNCCCN1c2ccccc2CCc2ccccc21 [Desipramine],4,–
–,–,CN(C)CCC=C1c2ccccc2COc2ccccc21 [Doxepine],4,–
11 nM,42 nM,"Cc1cc(N2CCN(C)CC2)nc2ccc(NC(=O)/C=C/c3ccc(OC(F)(F)F)cc3)cc12 [Example 16, (E)-N-[4-Methyl-2-(4-methyl-piperazin-1-yl)-quinolin-6-yl]-3-(4-trifluoromethoxy-phenyl)-acrylamide]",–,–
12 nM,71 nM,"Cc1cc(N2CCCNCC2)nc2ccc(NC(=O)COc3ccc(OC(F)(F)F)cc3)cc12 [Example 25, N-(2-[1,4]Diazepan-1-yl-4-methylquinolin-6-yl)-2-(4-trifluoromethoxyphenoxy)-acetamide]",–,–
41 nM,63 nM,"Cc1cc(N2CCC(N)CC2)nc2ccc(NC(=O)COc3ccc(Cl)cc3Cl)cc12 [Example 33, N-[2-(4-Amino-piperidin-1-yl)-4-methyl-quinolin-6-yl]-2-(2,4-dichloro-phenoxy)-acetamide]",–,–
50 nM,23 nM,"Cc1cc(N2CCN(CCO)CC2)nc2ccc(NC(=O)COc3ccc(OC(F)(F)F)cc3)cc12 [Example 38, N-{2-[4-(2-Hydroxy-ethyl)-piperazin-1-yl]-4-methyl-quinolin-6-yl}-2-(4-trifluoromethoxy-phenoxy)-acetamide]",–,–
22 nM,–,"Cc1cc(NCCN(C(C)C)C(C)C)nc2ccc(NC(=O)COc3ccc(OC(F)(F)F)cc3)cc12 [Example 40, N-[2-(2-Diisopropylamino-ethylamino)-4-methyl-quinolin-6-yl]-2-(4-trifluoromethoxy-phenoxy)-acetamide]",–,–

IC50 (human MCH-1 receptor [1]),IC50 (human MCH-1 receptor [2]; [6]),SMILES,Risk Group [3],other results
10 nM,16 nM,"Cc1cc(NCCN2CCOCC2)nc2ccc(NC(=O)COc3ccc(OC(F)(F)F)cc3)cc12 [Example 42, N-[4-Methyl-2-(2-morpholin-4-yl-ethylamino)-quinolin-6-yl]-2-(4-trifluoromethoxy-phenoxy)-acetamide]",–,–
21 nM,190 nM,"Cc1cc(NCC(C)(C)CN(C)C)nc2ccc(NC(=O)COc3ccc(OC(F)(F)F)cc3)cc12 [Example 45, N-[2-(3-Dimethylamino-2,2-dimethyl-propylamino)-4-methyl-quinolin-6-yl]-2-(4-trifluoromethoxy-phenoxy)-acetamide]",–,–
13 nM,10 nM,"CCN1CCCC1CNc1cc(C)c2cc(NC(=O)/C=C/c3ccc(OC(F)(F)F)cc3)ccc2n1 (stereo not drawn) [Example 62, (E)-N-{2-[(1-Ethyl-pyrrolidin-2-ylmethyl)-amino]-4-methyl-quinolin-6-yl}-3-(4-trifluoromethoxy-phenyl)-acrylamide]",–,–
–,–,"Cc1cc(OCCN(C)C)nc2ccc(NC(=O)COc3ccc(Cl)cc3Cl)cc12 [Example 76, 2-(2,4-Dichloro-phenoxy)-N-[2-(2-dimethylamino-ethoxy)-4-methyl-quinolin-6-yl]-acetamide]",–,IC50 (human MCH-1 receptor [2]): 135 nM
37 nM,720 nM,"Cc1cc(N(C)CCN(C)C)nc2ccc(NC(=O)CCc3ccc(OC(F)(F)F)cc3)cc12 [Example 98, N-{2-[(2-Dimethylamino-ethyl)-methyl-amino]-4-methyl-quinolin-6-yl}-3-(4-trifluoromethoxy-phenyl)-propionamide]",–,–
10 nM,63 nM,"Cc1nc(N(C)CCCN(C)C)nc2ccc(NC(=O)COc3ccc(Cl)cc3Cl)cc12 [Example 137, 2(2,4-Dichlorophenoxy)N{2[(3-dimethylaminopropyl)methyl-amino]-4-methyl-quinazolin-6-yl}-acetamide]",–,–
63 nM,474 nM,"Cc1cc(N(C)CCN(C)C)nc2ccc(NC(=O)c3ccc(-c4ccc(C(F)(F)F)cc4)cc3)cc12 [Example 183, 4′-Trifluoromethyl-biphenyl-4-carboxylic acid {2-[(2-dimethylamino-ethyl)-methyl-amino]-4-methyl-quinolin-6-yl}-amide]",–,–
–,–,CNCCC(Oc1ccc(C(F)(F)F)cc1)c1ccccc1 (stereo not drawn) [Fluoxetine],4,–
–,–,OCCN1CCN(CCCN2c3ccccc3Sc3ccc(C(F)(F)F)cc32)CC1 [Fluphenazine],–,Ki (HERG channels [5]): 2.5 ± 0.57 µM
–,–,O=C(CCCN1CCC(O)(c2ccc(Cl)cc2)CC1)c1ccc(F)cc1 [Haloperidole],1,Ki (HERG channels [4]): 170 nM
–,–,CN(C)CCCN1c2ccccc2CCc2ccccc21 [Imipramine],4,–
–,–,CC(=O)N1CCN(c2ccc(OCC3COC(Cn4ccnc4)(c4ccc(Cl)cc4Cl)O3)cc2)CC1 (stereo not drawn) [Ketoconazole],4,–
–,–,O=c1[nH]c2ccccc2n1C1CCN(CCCC(c2ccc(F)cc2)c2ccc(F)cc2)CC1 [Pimozide],1,–
–,–,Cc1nc2n(c(=O)c1CCN1CCC(c3noc4cc(F)ccc34)CC1)CCCC2 [Risperidone],2,–
–,–,CC(CN(C)C)CN1c2ccccc2CCc2ccccc21 (stereo not drawn) [Trimipramine],4,Ki in μM ± S.D. (#) (HERG channels [4]): No effect at 10
